Experimental data taken from article PMC11240139, “Exploring the antitumor potential of novel quinoline derivatives via tubulin polymerization inhibition in breast cancer; design, synthesis and molecular docking” (RSC Advances, 2024).

Tests used:
Type in all cases: cell-based
[1] = test system: CCRF-CEM (leukemia); assay: NCI-60 SRB cytotoxicity screen; details: Homo sapiens, single dose 10 μM, read-out: growth inhibition (GI%)
[2] = test system: K-562 (leukemia); assay: NCI-60 SRB cytotoxicity screen; details: Homo sapiens; K-652 [sic], single dose 10 μM; read-out: growth inhibition (GI%)
[3] = test system: MOLT-4 (leukemia); assay: NCI-60 SRB cytotoxicity screen; details: Homo sapiens; MOLT-4, single dose 10 μM; read-out: growth inhibition (GI%)
[4] = test system: NCI-H226 (non-small cell lung cancer); assay: NCI-60 SRB cytotoxicity screen; details: Homo sapiens; NCI-H226, single dose 10 μM; read-out: growth inhibition (GI%)
[5] = test system: NCI-H23 (non-small cell lung cancer); assay: NCI-60 SRB cytotoxicity screen; details: Homo sapiens; NCI-H23, single dose 10 μM; read-out: growth inhibition (GI%)
[6] = test system: NCI-H322M (non-small cell lung cancer); assay: NCI-60 SRB cytotoxicity screen; details: Homo sapiens, single dose 10 μM, read-out: growth inhibition (GI%)
[7] = test system: COLO 205 (colon cancer); assay: NCI-60 SRB cytotoxicity screen; details: Homo sapiens; COLO 205, single dose 10 μM; read-out: growth inhibition (GI%)
[8] = test system: HCT-116 (colon cancer); assay: NCI-60 SRB cytotoxicity screen; details: Homo sapiens; HCT-116, single dose 10 μM; read-out: growth inhibition (GI%)
[9] = test system: HT29 (colon cancer); assay: NCI-60 SRB cytotoxicity screen; details: Homo sapiens, HT-29; HT29, single dose 10 μM; read-out: growth inhibition (GI%)
[10] = test system: SF-268 (CNS cancer); assay: NCI-60 SRB cytotoxicity screen; details: Homo sapiens; SF-268, single dose 10 μM; read-out: growth inhibition (GI%)
[11] = test system: SF-539 (CNS cancer); assay: NCI-60 SRB cytotoxicity screen; details: Homo sapiens; SF-539, single dose 10 μM; read-out: growth inhibition (GI%)
[12] = test system: SNB-19 (CNS cancer); assay: NCI-60 SRB cytotoxicity screen; details: Homo sapiens; SNB-19, single dose 10 μM; read-out: growth inhibition (GI%)
[13] = test system: SNB-75 (CNS cancer); assay: NCI-60 SRB cytotoxicity screen; details: Homo sapiens, SNB-75, SNB-75, single dose 10 μM; read-out: growth inhibition (GI%)
[14] = test system: U251 (CNS cancer); assay: NCI-60 SRB cytotoxicity screen; details: Homo sapiens, U-251; U251, single dose 10 μM; read-out: growth inhibition (GI%)
[15] = test system: LOX IMVI (melanoma); assay: NCI-60 SRB cytotoxicity screen; details: Homo sapiens, single dose 10 μM, read-out: growth inhibition (GI%)
[16] = test system: M14 (melanoma); assay: NCI-60 SRB cytotoxicity screen; details: Homo sapiens; M14, single dose 10 μM; read-out: growth inhibition (GI%)
[17] = test system: SK-MEL-28 (melanoma); assay: NCI-60 SRB cytotoxicity screen; details: Homo sapiens; SK-MEL-28, single dose 10 μM; read-out: growth inhibition (GI%)
[18] = test system: IGROV1 (ovarian cancer); assay: NCI-60 SRB cytotoxicity screen; details: Homo sapiens, IGROV-1; IGROV1, single dose 10 μM; read-out: growth inhibition (GI%)
[19] = test system: OVCAR-3 (ovarian cancer); assay: NCI-60 SRB cytotoxicity screen; details: Homo sapiens; OVCAR-3, single dose 10 μM; read-out: growth inhibition (GI%)
[20] = test system: OVCAR-5 (ovarian cancer); assay: NCI-60 SRB cytotoxicity screen; details: Homo sapiens; OVCAR-5, single dose 10 μM; read-out: growth inhibition (GI%)
[21] = test system: OVCAR-8 (ovarian cancer); assay: NCI-60 SRB cytotoxicity screen; details: Homo sapiens; OVCAR-8, single dose 10 μM; read-out: growth inhibition (GI%)
[22] = test system: NCI/ADR-RES (ovarian cancer); assay: NCI-60 SRB cytotoxicity screen; details: Homo sapiens, single dose 10 μM, read-out: growth inhibition (GI%)
[23] = test system: A498 (renal cancer); assay: NCI-60 SRB cytotoxicity screen; details: Homo sapiens; A498, single dose 10 μM; read-out: growth inhibition (GI%)
[24] = test system: SN12C (renal cancer); assay: NCI-60 SRB cytotoxicity screen; details: Homo sapiens, single dose 10 μM, read-out: growth inhibition (GI%)
[25] = test system: UO-31 (renal cancer); assay: NCI-60 SRB cytotoxicity screen; details: Homo sapiens; UO-31, single dose 10 μM; read-out: growth inhibition (GI%)
[26] = test system: DU-145 (prostate cancer); assay: NCI-60 SRB cytotoxicity screen; details: Homo sapiens; DU-145, single dose 10 μM; read-out: growth inhibition (GI%)
[27] = test system: MDA-MB-231/ATCC (breast cancer); assay: NCI-60 SRB cytotoxicity screen; details: Homo sapiens, MDA-MB-231, read-out: growth inhibition (GI%);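 note: growth inhibition in percent at a single 10 µM dose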
[28] = test system: HS 578T (breast cancer); assay: NCI-60 SRB cytotoxicity screen; details: Homo sapiens, single dose 10 μM, read-out: growth inhibition (GI%)
[29] = test system: T-47D (breast cancer); assay: NCI-60 SRB cytotoxicity screen; details: Homo sapiens, T47D, single dose 10 μM, read-out: growth inhibition (GI%)
[30] = test system: MDA-MB-468 (breast cancer); assay: NCI-60 SRB cytotoxicity screen; details: Homo sapiens; MDA-MB-468, single dose 10 μM; read-out: growth inhibition (GI%)
Outline: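 NCI-60 single-dose (10^−5 M) screen in MDA-MB-468 with SRB protein-stain read-out after 48 h exposure; cells TCA-fixed and absorbance read at 540 nm. Reported as GI%, with compounds meeting NCI activity criteria then run at five doses (0.01–100 μM).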

[31] = test system: 60 cancer cell lines (NCI); assay: NCI-60 single-dose screen, overall verdict over the panel; details: single dose 10 μM, whole panel
Experimental: The cytotoxic activity of the synthesized quinoline derivatives was determined by the national cancer institute (NCI, Bethesda, Maryland, USA) against 60 different cancer cell lines at a single high dose (10^−5 M) in the full NCI 60 cell panel using the sulforhodamine B assay for cell viability evaluation. In summary, 5 × 10^3 cells were in 96-well plate and incubated in complete media for 24 h. Cells were treated with 100 μL of media containing each newly synthesized compound. After drug exposure, cells were fixed by replacing media with 150 μL of 10% TCA and incubated at 4 °C for 1 h. The TCA solution was removed, and the cells were washed 5 times with distilled water. Aliquots of 70 μL SRB solution (0.4% w/v) were added and incubated in a dark place at room temperature for 10 min. The plates were washed 3 times with 1% acetic acid and allowed to air-dry overnight. Then, 150 μL of TRIS (10 mM) was added to dissolve protein-bound SRB stain. The absorbance was measured at 540 nm.% Cytotoxicity = [1 − (AVx/AVNC)] × 100where AVx denotes the average absorbance of the sample well and AVNC denotes the average absorbance of the negative control.

SMILES: CCc1cccc2cc(-c3cc(-c4ccc(Br)cc4)[nH]c(=S)c3C#N)c(Cl)nc12 [Compound 5e, 6-(4-Bromophenyl)-4-(2-chloro-8-ethylquinolin-3-yl)-2-thioxo-1,2-dihydropyridine-3-carbonitrile]
- inhibition at 10 µM [1]: < 10%
- inhibition at 10 µM [2]: < 10%
- inhibition at 10 µM [3]: < 10%
- inhibition at 10 µM [4]: < 10%
- inhibition at 10 µM [5]: < 10%
- inhibition at 10 µM [6]: < 10%
- inhibition at 10 µM [7]: < 10%
- inhibition at 10 µM [8]: < 10%
- inhibition at 10 µM [9]: < 10%
- inhibition at 10 µM [10]: < 10%
- inhibition at 10 µM [11]: < 10%
- inhibition at 10 µM [12]: < 10%
- inhibition at 10 µM [13]: 19.8%
- inhibition at 10 µM [14]: < 10%
- inhibition at 10 µM [15]: < 10%
- inhibition at 10 µM [16]: 11%
- inhibition at 10 µM [17]: < 10%
- inhibition at 10 µM [18]: < 10%
- inhibition at 10 µM [19]: < 10%
- inhibition at 10 µM [20]: < 10%
- inhibition at 10 µM [21]: < 10%
- inhibition at 10 µM [22]: < 10%
- inhibition at 10 µM [23]: < 10%
- inhibition at 10 µM [24]: < 10%
- inhibition at 10 µM [25]: 24.1%
- inhibition at 10 µM [26]: < 10%
- inhibition at 10 µM [27]: 12.9%
- inhibition at 10 µM [28]: < 10%
- inhibition at 10 µM [29]: 10.4%
- inhibition at 10 µM [30]: < 10%
- cytotoxic activity over the cell lines (in words) [31]: slight cytotoxic activity

SMILES: CCc1cccc2cc(C3C=C(c4ccc(F)cc4)NC(=S)N3)c(Cl)nc12 (stereo not drawn) [Compound 6d, 4-(2-Chloro-8-ethylquinolin-3-yl)-6-(4-fluorophenyl)-3,4-dihydropyrimidine-2(1H)-thione]
- inhibition at 10 µM [1]: < 10%
- inhibition at 10 µM [2]: 27.6%
- inhibition at 10 µM [3]: 48.8%
- inhibition at 10 µM [4]: 21.7%
- inhibition at 10 µM [5]: 11.8%
- inhibition at 10 µM [6]: < 10%
- inhibition at 10 µM [7]: < 10%
- inhibition at 10 µM [8]: 21.5%
- inhibition at 10 µM [9]: 28.3%
- inhibition at 10 µM [10]: 14.9%
- inhibition at 10 µM [11]: < 10%
- inhibition at 10 µM [12]: < 10%
- inhibition at 10 µM [13]: < 10%
- inhibition at 10 µM [14]: < 10%
- inhibition at 10 µM [15]: < 10%
- inhibition at 10 µM [16]: 10.8%
- inhibition at 10 µM [17]: < 10%
- inhibition at 10 µM [18]: < 10%
- inhibition at 10 µM [19]: < 10%
- inhibition at 10 µM [20]: < 10%
- inhibition at 10 µM [21]: < 10%
- inhibition at 10 µM [22]: 17%
- inhibition at 10 µM [23]: < 10%
- inhibition at 10 µM [24]: < 10%
- inhibition at 10 µM [25]: 49.5%
- inhibition at 10 µM [26]: < 10%
- inhibition at 10 µM [27]: < 10%
- inhibition at 10 µM [28]: < 10%
- inhibition at 10 µM [29]: 23.9%
- cytotoxic activity over the cell lines (in words) [31]: limited cytotoxic activity

SMILES: CCc1cccc2cc(-c3cc(-c4ccc(F)cc4)[nH]c(=S)c3C#N)c(Cl)nc12 [Compound 5d, 4-(2-Chloro-8-ethylquinolin-3-yl)-6-(4-fluorophenyl)-2-thioxo-1,2-dihydropyridine-3-carbonitrile]
- inhibition at 10 µM [1]: < 10%
- inhibition at 10 µM [2]: 29.3%
- inhibition at 10 µM [3]: 26.8%
- inhibition at 10 µM [4]: 25.9%
- inhibition at 10 µM [5]: 16.4%
- inhibition at 10 µM [6]: 12.4%
- inhibition at 10 µM [7]: < 10%
- inhibition at 10 µM [8]: < 10%
- inhibition at 10 µM [9]: < 10%
- inhibition at 10 µM [10]: 21%
- inhibition at 10 µM [11]: < 10%
- inhibition at 10 µM [12]: 10.5%
- inhibition at 10 µM [13]: 39.1%
- inhibition at 10 µM [14]: < 10%
- inhibition at 10 µM [15]: 12.4%
- inhibition at 10 µM [16]: < 10%
- inhibition at 10 µM [17]: < 10%
- inhibition at 10 µM [18]: 28.6%
- inhibition at 10 µM [20]: < 10%
- inhibition at 10 µM [21]: < 10%
- inhibition at 10 µM [22]: < 10%
- inhibition at 10 µM [23]: < 10%
- inhibition at 10 µM [24]: < 10%
- inhibition at 10 µM [25]: 40.1%
- inhibition at 10 µM [27]: 31.2%
- inhibition at 10 µM [28]: 18.2%
- inhibition at 10 µM [29]: 21.1%
- inhibition at 10 µM [30]: 14%
- cytotoxic activity over the cell lines (in words) [31]: slight cytotoxic activity
